The results in this text go back to ChEMBL document CHEMBL1201862, “PubChem BioAssay data set” (2004).

Molecules are shown by their SMILES. Several values for one entry are separate records, joined by “and”; a condition that tells them apart may be missing. Equal values may be shown once.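 Growth conditions: 96-well plates. Treatment: test compound, 48 hours, 5 concentrations. Analysis: linear interpolation between bracketing concentrations; unreached endpoints set to highest concentration. GI50 = concentration required for 50% inhibition of growth.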 Activity calls are given as the source filed them. No stated cut-off is given here; in the data, active = GI50 up to about 1.1 µM and inactive = higher.

Among the test systems are U-251; SR; SK-MEL-28; CCRF-CEM; MOLT-4; TK-10; ACHN; MDA-MB-435; SK-MEL-2; HCC 2998; HOP-92; NCI-H23; NCI-H522; OVCAR-4; A498; LOX IMVI; MCF7; OVCAR-5; Malme-3M; KM12.
What all share (test): inhibition of tumour cell growth, NCI panel, 48 h

With `CSC12c3cc(C)n(-c4ccc(I)cc4)c3CC(C)(C)CN1C(=O)C2Oc1ccccc1` (stereo unspecified), the GI50 in the experiment on U-251 was > 100 µM (inactive); in the experiment on SR, > 91.2 µM (inactive); in the experiment with SK-MEL-28 it was > 100 µM (inactive); with CCRF-CEM, > 100 µM (inactive); in the experiment with MOLT-4, > 63.1 µM (inactive); with TK-10, > 100 µM (inactive). For the same molecule, the GI50 in the experiment on ACHN, with MDA-MB-435, in the experiment on SK-MEL-2, in the experiment with HCC 2998, in the experiment on HOP-92 and in the experiment with NCI-H23 was > 100 µM (inactive) in each case. Further, the GI50 was > 100 µM (inactive) in the experiment with NCI-H522; > 100 µM (inactive) with OVCAR-4; 97.5 µM (inactive) in the experiment with A498; > 100 µM (inactive) in the experiment on LOX IMVI; 14.1 µM (inactive) with MCF7; > 100 µM (inactive) in the experiment on OVCAR-5. Besides, the GI50 in the experiment on Malme-3M and with KM12 was > 100 µM (inactive) throughout.
With `CC[P+]1(c2ccccc2)[C@@H](C)CC[C@@H]1C`, the GI50 is 40.5 µM (inactive) in the experiment on U-251; > 100 µM (inactive) in the experiment on SR; > 100 µM (inactive) with SK-MEL-28; > 100 µM (inactive) in the experiment with CCRF-CEM; > 100 µM (inactive) in the experiment on MOLT-4; > 100 µM (inactive) with TK-10. In addition, the GI50 in the experiment with ACHN is > 100 µM (inactive); in the experiment with MDA-MB-435 it was > 100 µM (inactive); in the experiment on SK-MEL-2, > 100 µM (inactive); with HCC 2998, > 100 µM (inactive); with HOP-92, 39.1 µM (inactive); in the experiment with NCI-H23, > 100 µM (inactive). For the same molecule, the GI50 in the experiment on NCI-H522, in the experiment with OVCAR-4, with A498, with LOX IMVI, with MCF7 and in the experiment on OVCAR-5 was > 100 µM (inactive) each time. For the same molecule, the values for the GI50 in the experiment on Malme-3M and with KM12 were 97.1 µM (inactive) and > 100 µM (inactive), respectively.
Take `O=C1CSC(c2ccccc2[N+](=O)[O-])N1c1ccc(-c2ccc(-n3c(-c4ccccc4)nc4ccccc4c3=O)cc2)cc1` (stereo unspecified): the GI50 was 42.6 µM (inactive) in the experiment with U-251; 44.6 µM (inactive) in the experiment on SR; > 100 µM (inactive) in the experiment with SK-MEL-28; 46.2 µM (inactive) in the experiment on CCRF-CEM; 43.2 µM (inactive) with MOLT-4; > 100 µM (inactive) in the experiment on TK-10. The GI50 was > 100 µM (inactive) with ACHN; > 100 µM (inactive) in the experiment with MDA-MB-435; > 100 µM (inactive) with SK-MEL-2; > 100 µM (inactive) with HCC 2998; 46.6 µM (inactive) in the experiment on HOP-92; > 10 µM (inactive) in the experiment with NCI-H23. Besides, the GI50 in the experiment on NCI-H522 is > 100 µM (inactive); with OVCAR-4 it was 75.5 µM (inactive); in the experiment on A498 it was > 100 µM (inactive); with LOX IMVI it was 54 µM (inactive); with MCF7, 80.5 µM (inactive); in the experiment on OVCAR-5, 71.3 µM (inactive). Also, the GI50 was > 100 µM (inactive) with Malme-3M and 80 µM (inactive) in the experiment with KM12.
With `COc1ccccc1NC(=O)CC(=O)n1nc(C)c(/N=N/c2ccccc2Cl)c1C`, the GI50 with U-251 was 27.8 µM (inactive); in the experiment with SR it was > 72.4 µM (inactive); with SK-MEL-28, > 100 µM (inactive); in the experiment on CCRF-CEM, > 81.3 µM (inactive); in the experiment on MOLT-4, 80.2 µM (inactive); with TK-10 it was > 100 µM (inactive). Further, the GI50 in the experiment with ACHN was > 100 µM (inactive); with MDA-MB-435 it was > 100 µM (inactive); with SK-MEL-2, > 100 µM (inactive); in the experiment on HCC 2998, > 100 µM (inactive); in the experiment on HOP-92 it was > 93.8 µM (inactive); in the experiment with NCI-H23 it was > 37.2 µM (inactive). Besides, the GI50 in the experiment with NCI-H522, with OVCAR-4, in the experiment with A498, in the experiment on LOX IMVI, in the experiment with MCF7 and in the experiment with OVCAR-5 was > 100 µM (inactive) in each case. Besides, the GI50 in the experiment on Malme-3M and with KM12 was > 100 µM (inactive) in each case.
In the case of `CO[C@@H]1C[C@H](OC(N)=O)[C@@H]2C=C[C@@H]3/C=C(C)/C=C/[C@@H](C)[C@H]([C@H](C)[C@H](O)[C@@H](C)NC(C)=O)OC(=O)/C=C/C=C(C)\C=C\[C@]3(C)[C@@H]2C1`, the GI50 in the experiment on U-251 was < 0.01 µM (active); in the experiment on SR it was < 0.01 µM (active); in the experiment with SK-MEL-28, < 0.01 µM (active); in the experiment on CCRF-CEM it was 0.322 µM (active); with MOLT-4 it was 0.332 µM (active); with ACHN it was < 0.01 µM (active). Besides, the GI50 with MDA-MB-435 was < 0.01 µM (active); with SK-MEL-2, 1.28 µM (inactive); in the experiment on HCC 2998, < 0.01 µM (active); in the experiment on HOP-92, < 0.01 µM (active); with NCI-H23, 0.522 µM (active); in the experiment with NCI-H522, < 0.01 µM (active). In addition, the GI50 in the experiment with OVCAR-4 is < 0.01 µM (active); in the experiment with A498 it was < 0.01 µM (active); in the experiment on LOX IMVI it was < 0.01 µM (active); in the experiment on MCF7, < 0.01 µM (active); in the experiment on OVCAR-5 it was 1.42 µM (inactive); in the experiment on Malme-3M it was < 0.01 µM (active). Further, in the experiment with KM12, the GI50 was < 0.01 µM (active).
On to `COC1OC(C(=O)CP(=O)(OC)OC)C(OCc2ccccc2)C(OCc2ccccc2)C1OCc1ccccc1` (stereo unspecified), for which the GI50 with U-251 was 16.7 µM (inactive) and 15.6 µM (inactive); in the experiment on SR, 16.4 µM (inactive) and 25.4 µM (inactive); with SK-MEL-28, 16.9 µM (inactive) and 21 µM (inactive); in the experiment with CCRF-CEM it was 33.1 µM (inactive) and 25.1 µM (inactive); with MOLT-4, 13 µM (inactive) and 20.8 µM (inactive); in the experiment with TK-10, 17.1 µM (inactive) and 18.8 µM (inactive). Moreover, the GI50 is 16.4 µM (inactive) and 15.9 µM (inactive) in the experiment with ACHN; 18.7 µM (inactive) and 17 µM (inactive) in the experiment with MDA-MB-435; 16.5 µM (inactive) and 17.1 µM (inactive) in the experiment on SK-MEL-2; 16.2 µM (inactive) and 17.3 µM (inactive) in the experiment with HCC 2998; 17.9 µM (inactive) and 19.1 µM (inactive) in the experiment with HOP-92; 15.9 µM (inactive) and 17.5 µM (inactive) with NCI-H23. Moreover, the GI50 in the experiment with NCI-H522 was 14.5 µM (inactive) and 16 µM (inactive); in the experiment with OVCAR-4 it was 14.7 µM (inactive) and 20.7 µM (inactive); in the experiment on A498, 14.1 µM (inactive); with LOX IMVI, 17.7 µM (inactive) and 17.2 µM (inactive); with MCF7 it was 16.4 µM (inactive); with OVCAR-5, 15.4 µM (inactive) and 17.4 µM (inactive). Further, the GI50 is 17.9 µM (inactive) and 19.2 µM (inactive) in the experiment on Malme-3M; 18.7 µM (inactive) and 18.9 µM (inactive) with KM12.
For `O=C(O)CCC(C(=O)O)N1C(=O)c2ccccc2C1=O` (stereo unspecified), the GI50 in the experiment on U-251, with SR, in the experiment with SK-MEL-28, with CCRF-CEM, in the experiment on TK-10 and with ACHN was > 100 µM (inactive) each time. For the same molecule, the GI50 in the experiment with MDA-MB-435, in the experiment on SK-MEL-2, in the experiment on HCC 2998, in the experiment on HOP-92, in the experiment with NCI-H23 and in the experiment with NCI-H522 was > 100 µM (inactive) throughout. Moreover, the GI50 in the experiment with OVCAR-4, with A498, in the experiment on LOX IMVI, in the experiment with MCF7, in the experiment on OVCAR-5 and with Malme-3M was > 100 µM (inactive) throughout. Further, the GI50 in the experiment with KM12 was > 100 µM (inactive).
Consider `CC(/C=C/C=C\C=C\C=C(/C)C(=O)NC(C)CO)=C\C(C)C(O)/C(C)=C/C(C)CCc1ccccc1` (stereo unspecified), for which the GI50 is 14.9 µM (inactive) in the experiment on U-251; 1.14 µM (inactive) in the experiment with SR; 12.9 µM (inactive) in the experiment on SK-MEL-28; 8.85 µM (inactive) in the experiment on CCRF-CEM; 7.46 µM (inactive) with MOLT-4; 14 µM (inactive) in the experiment with TK-10. The GI50 with ACHN is 0.274 µM (active); in the experiment with MDA-MB-435 it was 12.8 µM (inactive); in the experiment with SK-MEL-2, 13.2 µM (inactive); with HCC 2998 it was 7.59 µM (inactive); with HOP-92, 5.41 µM (inactive); with NCI-H23, < 0.01 µM (active). Also, the GI50 was 2.77 µM (inactive) in the experiment on NCI-H522; 12.4 µM (inactive) in the experiment on OVCAR-4; 12.6 µM (inactive) in the experiment with A498; 1.84 µM (inactive) in the experiment with MCF7; 10.9 µM (inactive) with OVCAR-5; 6.64 µM (inactive) in the experiment on Malme-3M. Besides, in the experiment with KM12, the GI50 was 2.32 µM (inactive).
Take `Oc1c(C2=NNC(c3cccs3)C2)ccc2ccccc12` (stereo unspecified): the GI50 was 25 µM (inactive) with U-251; 8.89 µM (inactive) in the experiment with SR; 36 µM (inactive) in the experiment with SK-MEL-28; 11.1 µM (inactive) in the experiment with CCRF-CEM; 10.1 µM (inactive) in the experiment on MOLT-4; 28.1 µM (inactive) in the experiment on TK-10. Further, the GI50 in the experiment with ACHN is 27.7 µM (inactive); with MDA-MB-435 it was 18.3 µM (inactive); with SK-MEL-2, 40.5 µM (inactive); in the experiment with HCC 2998, 14.8 µM (inactive); in the experiment on HOP-92 it was 18.2 µM (inactive); in the experiment on NCI-H23, 28.5 µM (inactive). Also, the GI50 was 21.9 µM (inactive) in the experiment with NCI-H522; 29.4 µM (inactive) in the experiment with OVCAR-4; 26.2 µM (inactive) with A498; 15.6 µM (inactive) in the experiment with MCF7; 29.6 µM (inactive) with OVCAR-5; 18.8 µM (inactive) in the experiment with Malme-3M. In addition, in the experiment on KM12, the GI50 was 12 µM (inactive).
